Reference: patent EP3723745B1, “PHENOXY ACIDS FOR THE TREATMENT OF NEUROMUSCULAR DISORDERS” (NMD Pharma A/S, priority 2017, dated 2019)

What was measured:
CIC-1 channels = target: T1, CIC-1 channels (Rattus norvegicus, UniProt P35524); test: Electrophysiological measurement of compound inhibition of CIC-1 in rat muscle (Gm, three micro-electrodes technique); assay type: cell-based; conditions: reduction of Gm in fibres of whole rat soleus muscles, approx. 30°C; n = number of experiments
T1 construct: from tissue; host or cells: intact soleus muscle of 12-14-week old Wistar rats
T1 sequence (P35524 1-994): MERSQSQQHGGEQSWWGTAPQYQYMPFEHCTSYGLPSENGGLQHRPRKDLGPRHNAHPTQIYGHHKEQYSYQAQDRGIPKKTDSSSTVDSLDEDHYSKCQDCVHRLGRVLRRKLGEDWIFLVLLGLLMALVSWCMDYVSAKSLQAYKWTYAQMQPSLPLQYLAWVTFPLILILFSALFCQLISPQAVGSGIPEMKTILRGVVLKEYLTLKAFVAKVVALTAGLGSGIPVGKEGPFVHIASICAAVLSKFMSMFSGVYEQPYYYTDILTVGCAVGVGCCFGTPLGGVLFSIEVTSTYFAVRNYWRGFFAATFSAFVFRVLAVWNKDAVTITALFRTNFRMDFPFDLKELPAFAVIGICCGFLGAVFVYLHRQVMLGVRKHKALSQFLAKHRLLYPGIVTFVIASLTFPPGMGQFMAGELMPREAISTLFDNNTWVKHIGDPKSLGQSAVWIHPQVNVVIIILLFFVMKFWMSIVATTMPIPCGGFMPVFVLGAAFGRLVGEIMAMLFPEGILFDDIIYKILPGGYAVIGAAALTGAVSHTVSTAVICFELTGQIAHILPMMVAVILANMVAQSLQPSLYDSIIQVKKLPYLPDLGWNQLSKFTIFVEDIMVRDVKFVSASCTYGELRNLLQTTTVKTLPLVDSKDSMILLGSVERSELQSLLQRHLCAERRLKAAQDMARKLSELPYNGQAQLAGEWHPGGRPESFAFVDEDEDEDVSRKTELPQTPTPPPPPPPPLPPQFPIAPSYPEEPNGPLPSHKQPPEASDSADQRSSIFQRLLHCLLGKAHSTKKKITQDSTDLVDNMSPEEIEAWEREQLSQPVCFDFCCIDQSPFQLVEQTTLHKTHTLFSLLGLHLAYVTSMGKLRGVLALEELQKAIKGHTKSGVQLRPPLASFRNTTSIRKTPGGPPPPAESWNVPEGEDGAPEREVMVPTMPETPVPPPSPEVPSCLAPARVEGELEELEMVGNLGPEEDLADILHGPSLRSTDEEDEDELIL
Text: Table 2: Inhibition of CIC-1 ion channel using compounds of the invention

soleus muscles = test: Measurement of force in an in vitro model: isolated rat nerve-muscle preparation with tubocurarine; conditions: for activation at 50 µM: Rattus norvegicus, 40 min, percentage of initial force restored after 40 mins with 50 µM test compound, tubocurarine (115 nM) for 90 mins, read-out: Point increase
Description: Recovery of force is quantified as the percentage of the force prior to tubocurarine that is recovered by the compound.
The current invention relates to compounds that inhibit CIC-1 ion channels and increase muscle excitability and thereby improve muscle function in clinical conditions where muscle activation is failing. Such conditions result in loss of contractile function of skeletal muscle, weakness and excessive fatigue. In this series of experiments the compounds were tested for their ability to restore contractile function of isolated rat muscle when the neuromuscular transmission had been compromised akin to neuromuscular disorders.
Experimentally, soleus muscles from 4-5 wk old rats were isolated with the motor nerve remaining attached. The nerve-muscle preparations were mounted in experimental setups that enabled electrical stimulation of the motor nerve. Stimulation of the motor nerve led to activation of the muscle fibres and ensuing force production that was recorded.
After mounting the nerve-muscle preparation in the experimental setup, the contractile function of the muscle was initially assessed under the control conditions (Figure 2A). […] The experimental condition mimics the failing neuromuscular transmission in a range of neuromuscular disorders. After addition of tubocurarine the contractile force declined over the next 90 mins to 10-50 % of the control force. 50 µM of the test compound was then added and the contractile force recovered despite the continued presence of tubocurarine. To quantify the ability of the compound to restore force the percentage of the initial force that was restored was determined after 40 mins of compound exposure (Figure 2B) and the point increase is reported in Table 3. Table 3: Percentage increase of initial force that was restored using compounds of the invention

human CIC-1 channels = target: T2, human CIC-1 channels (Homo sapiens, UniProt P35523); test: Automated patch-clamp on human CIC-1 expressed in CHO cells; assay type: cell-based; conditions: difference in half activation voltage, compound added intracellularly vs control cell patches; positive shift = CIC-1 inhibition
T2 construct: host or cells: CHO cells constitutively expressing human ClC-1
Description: The investigatory goal of these experiments was to evaluate how compounds affect the open probability and current amplitude of human CIC-1 channels expressed in CHO cells. Experiments were performed using an automated patch clamp system that allowed high throughput testing of whole cell patches together with both intracellular and extracellular addition of compound.
Automated whole cell patch clamp experiments were performed with the Qpatch 16 system (Sophion Bioscience, Ballerup, Denmark) at room temperature. Data acquisition and analysis were performed in the Qassay software (ver. 5.6, Odense).
To evoke CIC-1 currents in whole cell patches, the membrane potential was initially stepped from a holding potential of -30 mV to +60 mV for 100 ms and then to various test voltages (sweeps) ranging from +120 mV to -140 mV in steps of 20 mV for 300 ms. To obtain tail currents, the membrane potential was stepped to -100 mV after each test voltage for 300 ms and then relaxed to -30 mV for 2 sec between sweeps (Figure 3). I/V relationships for whole cell instant and steady state current amplitudes were obtained by plotting average current densities at the beginning and at the end of the 300 ms step against the membrane potential (Figure 4).
In order to determine the relative overall open probability (P0), the instantaneous tail currents were normalized to the maximal tail current obtained following the most positive voltage step and plotted against the test voltage. Plots of normalized tail currents from each whole cell patch were then fitted to a Boltzmann function allowing determination of half activation voltages (V1/2, Figure 5).
For automated patch clamp experiments extracellular solutions contained: 2 mM CaCl2, 1 mM MgCl2, 10 mM HEPES, 4 mM KCI, 145 mM NaCl, 10 mM Glucose, pH adjusted to 7.4 with NaOH (2 M). Osmolality adjusted to -320 using sucrose.
Intracellular solutions contained: 80 mM CsF, 60 mM CsCI, 5/1 mM KOH/EGTA, 10 mM HEPES, 10 mM NaCl, pH adjusted to 7.2 with NaOH (2 M). Osmolality adjusted to -320 mOsm using sucrose.
Cells used in patch clamp experiments were Chinese hamster ovary cells (CHO) constitutively expressing human CIC-1 channels. The amino acid sequence encoded by the cDNA used to create this cell line was identical to the translated sequence for GenBank accession number NM_000083.2. Cells were produced by Charles River (Catalogue CT6175, Cleveland OH, USA) in a cryopreserved format. Experiments were performed on the cells directly after thawing (3 × 10^6 cells used in each experiment).
To evaluate the compound effect on CIC-1, when applied directly to the intracellular side of the cell membrane, the half activation voltage, V1/2, was determined from whole cell patches with compound added to the intracellular solution and then compared to V1/2 determined from control cell patches with only vehicle added to the intracellular solution. Additionally, the effect of extracellular added compound was evaluated by determine V1/2 and steady state current amplitudes before and after exchanging the extracellular solution to contain compound.
The difference in half activation voltage of CIC-1 channels, ΔV1/2, was determined as the difference between the cell patches treated intracellularly with compound and control cells patches and is reported in Table 4 below. A positive shift in ΔV1/2 is reflecting CIC-1 channel inhibition by the tested compound. P-values of <0.05 is considered significant. […]

T2 sequence (P35523 whole entry): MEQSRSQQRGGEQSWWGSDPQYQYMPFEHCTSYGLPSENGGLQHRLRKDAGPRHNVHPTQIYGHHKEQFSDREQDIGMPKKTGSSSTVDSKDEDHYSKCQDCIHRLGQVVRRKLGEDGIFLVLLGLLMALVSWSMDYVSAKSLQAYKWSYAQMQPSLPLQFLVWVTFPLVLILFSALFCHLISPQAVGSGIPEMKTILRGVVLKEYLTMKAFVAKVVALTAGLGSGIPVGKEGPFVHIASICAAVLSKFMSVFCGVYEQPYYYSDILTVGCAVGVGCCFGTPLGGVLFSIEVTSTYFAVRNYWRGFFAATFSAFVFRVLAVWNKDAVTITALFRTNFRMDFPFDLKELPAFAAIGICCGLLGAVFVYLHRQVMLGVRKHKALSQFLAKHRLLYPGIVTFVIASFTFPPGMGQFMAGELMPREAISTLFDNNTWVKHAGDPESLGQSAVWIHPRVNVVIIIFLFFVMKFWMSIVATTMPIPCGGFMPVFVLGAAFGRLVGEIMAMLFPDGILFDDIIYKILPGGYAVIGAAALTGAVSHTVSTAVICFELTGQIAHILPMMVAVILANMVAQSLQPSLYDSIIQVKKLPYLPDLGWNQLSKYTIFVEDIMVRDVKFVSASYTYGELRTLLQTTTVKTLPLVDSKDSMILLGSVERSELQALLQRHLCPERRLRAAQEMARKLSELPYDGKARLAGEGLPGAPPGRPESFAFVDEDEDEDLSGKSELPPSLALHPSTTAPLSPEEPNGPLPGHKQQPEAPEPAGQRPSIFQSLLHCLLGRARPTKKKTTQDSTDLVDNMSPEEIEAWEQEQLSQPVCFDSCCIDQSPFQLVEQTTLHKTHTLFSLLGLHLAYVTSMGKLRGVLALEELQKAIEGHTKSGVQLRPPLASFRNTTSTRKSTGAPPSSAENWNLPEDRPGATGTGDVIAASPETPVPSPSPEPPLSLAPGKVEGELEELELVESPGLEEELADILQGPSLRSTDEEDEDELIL

| EC50 (CIC-1 channels) | ΔV1/2 (human CIC-1 channels) | Structure (SMILES) | activation at 50 µM (soleus muscles) | average force (AUC) relative to initial force (soleus muscles; 50 µM compound added after 90 min incubation in tubocurarine, 3 muscles (Figure 2)) |
| --- | --- | --- | --- | --- |
| 3.8 ± 0.8 µM | 19.7 mV | O=C(O)[C@H](CF)Oc1ccc(Br)cc1 [Compound A-26, (2R)-2-(4-bromophenoxy)-3-fluoropropanoic acid] | 39% | – |
| 4.2 ± 0.6 µM | 5.19 mV | C[C@H](Oc1ccc(Br)cc1Br)C(=O)O [Compound A-40, (2S)-2-(2,4-dibromophenoxy)propan oic acid] | 20% | – |
| 5.9 ± 1.6 µM | – | CC(C)[C@H](Oc1ccc(Br)cc1I)C(=O)O [Compound A-88, (2S)-2-(4-bromo-2-iodophenoxy)-3-methylbutanoic acid] | 55% | – |
| 10.1 ± 0.2 µM | – | O=C(O)[C@@H](Oc1ccc(Br)cc1Cl)C1CCC1 [Compound A-71, (2S)-2-(4-bromo-2-chlorophenoxy)-2-cyclobutylacetic acid] | 49% | – |
| – | 19.0 mV | [2H][C@@](CF)(Oc1ccc(Br)cc1)C(=O)O [Compound A-82, (2R)-2-(4-bromophenoxy)-3-fluoro(2-^2H)propanoic acid] | 48% | – |
| – | 32.6 mV | C#CC[C@H](Oc1ccc(Br)cc1F)C(=O)O [Compound A-69, (2S)-2-(4-bromo-2-fluorophenoxy)pent-4-ynoic acid] | – | – |
| > 80 µM | – | CC(C)[C@@H](Oc1ccc(Br)cc1F)C(=O)O [Compound A-4, (2R)-2-(4-bromo-2-fluorophenoxy)-3-methylbutanoic acid] | – | – |
| 7.6 ± 1.6 µM | – | CC[C@H](Oc1ccc(Br)cc1Cl)C(=O)O [Compound A-78, (2S)-2-(4-bromo-2-chlorophenoxy)butanoic acid] | 38% | – |
| – | 15.2 mV | O=C(O)[C@@H](Oc1ccc(Br)cc1F)C(F)F [Compound A-9, (2R)-2-(4-bromo-2-fluorophenoxy)-3,3-difluoropropanoic acid] | – | – |
| 8.9 ± 3.2 µM | – | O=C(O)[C@@H](Oc1ccc(Br)cc1F)C1CCC1 [Compound A-86, (2S)-2-(4-bromo-2-fluorophenoxy)-2-cyclobutylacetic acid] | 45% | – |
| 8 µM | – | O=C(O)[C@H](CCF)Oc1ccc(Br)cc1I [Compound A-83, (2S)-2-(4-bromo-2-iodophenoxy)-4-fluorobutanoic acid] | 35% | – |
| 9.4 ± 0.6 µM | 37.8 mV | C#CC[C@H](Oc1ccc(Br)cc1Cl)C(=O)O [Compound A-67, (2S)-2-(4-bromo-2-chlorophenoxy)pent-4-ynoic acid] | 40% | – |
| 7.2 µM | – | CC(C)[C@H](Oc1ccc(Br)cc1Cl)C(=O)O [Compound A-73, (2S)-2-(4-bromo-2-chlorophenoxy)-3-methylbutanoic acid] | 51% | – |
| 12.5 ± 1.4 µM | 10.3 mV | C[C@@H](F)[C@H](Oc1ccc(Br)cc1F)C(=O)O [Compound A-95, (2R,3R)-2-(4-bromo-2-fluorophenoxy)-3-fluorobutanoic acid] | 39% | – |
| – | 17.4 mV | C[C@H](Oc1ccc(Cl)cc1F)C(=O)O [Compound A-38, (2S)-2-(4-chloro-2-fluorophenoxy)propanoi c acid] | – | – |
| 10 ± 9.5 µM | 12.5 mV | O=C(O)[C@H](CCF)Oc1ccc(Br)cc1F [Compound A-85, (2S)-2-(4-bromo-2-fluorophenoxy)-4-fluorobutanoic acid] | 37% | – |
| 7.2 µM | 27.4 mV | C#CC[C@H](Oc1ccc(Br)cc1Br)C(=O)O [Compound A-66, (2S)-2-(2,4-dibromophenoxy)pent-4-ynoic acid] | 51% | – |
| – | – | C[C@@H](Oc1ccc(Br)cc1F)C(=O)O [Compound A-28, (2R)-2-(4-bromo-2-fluorophenoxy)propanoi c acid] | -8% | – |
| 6.8 ± 1.3 µM | – | COC(=O)[C@H](C)Oc1ccc(Cl)cc1 [Compound A-54, methyl (2S)-2-(4-chlorophenoxy)propano ate] | – | – |
| 6.3 ± 2.4 µM | 28.2 mV | CC[C@H](Oc1ccc(Br)cc1F)C(=O)O [Compound A-58, (2S)-2-(4-bromo-2-fluorophenoxy)butanoic acid] | 44% | – |
| 2.3 µM | – | CC[C@H](Oc1ccc(Br)cc1I)C(=O)O [Compound A-90, (2S)-2-(4-bromo-2-iodophenoxy)butanoic acid] | 57% | – |
| – | – | O=C(O)[C@H](CF)Oc1ccc(Br)cc1F [Compound A-19, (2R)-2-(4-bromo-2-fluorophenoxy)-3-fluoropropanoic acid] | – | recovered |
| – | 9.4 mV | C[C@H](Oc1ccc(Br)cc1I)C(=O)O [Compound A-8, (2S)-2-(4-bromo-2-iodophenoxy)propanoic acid] | – | – |

| Structure (SMILES) | EC50 (CIC-1 channels) | ΔV1/2 (human CIC-1 channels) | activation at 50 µM (soleus muscles) | average force (AUC) relative to initial force (soleus muscles; 50 µM compound added after 90 min incubation in tubocurarine, 3 muscles (Figure 2)) |
| --- | --- | --- | --- | --- |
| [2H]CC([2H])[C@H](Oc1ccc(Br)cc1)C(=O)O (stereo partly drawn) [Compound A-76, (2S)-2-(4-bromophenoxy)(3,4-^2H2)butanoic acid] | – | 26.2 mV | 62% | – |
| [2H]c1cc(Br)cc([2H])c1O[C@@H](C)C(=O)O [Compound A-6, (2S)-2-[4-bromo(2,6-^2H2)phenoxy]propanoic acid] | – | 13.0 mV | 44% | – |
